Here are results for 4 molecules from ChEMBL document CHEMBL4354851, “Aggregation-Induced Emission Photosensitizers: From Molecular Design to Photodynamic Therapy” (2020).

The structures appear in SMILES notation.

A short description of assay [1]: Induction of […] generation assessed as bleaching rate of ABDA under white light irradiation relative to control. It counts as functional.
Another assay concerns HeLa. Nature of the assay: Photodynamic activity in human HeLa cells assessed as light dose required to kill 50% of cells by fluorescein diacetate and propidium iodide dye based fluorescence assay. It counts as functional.

In the case of `Cc1ccc(N(c2ccc(C)cc2)c2ccc(-c3ccc(/C=C/c4cc[n+](C)cc4)s3)cc2)cc1`, the Activity in assay [1] was found to be 90.7%. Same read-out and setting: for `C=Cc1c(C)c2cc3nc(c(CC(=O)O)c4[nH]c(cc5nc(cc1[nH]2)C(C)=C5CC)c(C)c4C(=O)O)C(CCC(=O)O)C3C` (centres undefined) the value was 16.7%. Turning to `CCC[n+]1cc2ccc(-c3ccc(N(c4ccccc4)c4ccccc4)cc3)cc2c(-c2ccccc2)c1-c1ccccc1.F[B-](F)(F)F`, in the assay with HeLa, the Activity came out at 3.7 kJ/cm2. On to `O=C(O)c1c(Cl)c(Cl)c(Cl)c(Cl)c1-c1c2cc(I)c(=O)c(I)c-2oc2c(I)c(O)c(I)cc12`, for which, in assay [1], the Activity was found to be 55.6%.
